Laboratory results as given in patent publication US12540120B2, “Herbicidal compounds” (SYNGENTA CROP PROTECTION AG, priority 2019, dated 2026).

How the values were obtained:
Type in all cases: in vivo
[1] = tested on: Amaranthus retoflexus (AMARE); test: B5 Pre-Emergence Efficacy—Test 2; details: 250 g/ha, evaluated after 13 days
Experimental: (§1) B5 Pre-Emergence Efficacy—Test 2 Seeds of a variety of test species were sown in standard soil in pots: Solanum nigrum (SOLNI), Amaranthus retoflexus (AMARE), Setaria faberi (SETFA), Echinochloa crus-galli (ECHCG), Ipomoea hederacea (IPOHE), Lolium perenne (LOLPE). After cultivation for one day (pre-emergence) under controlled conditions in a glasshouse (at 24/16° C., day/night; 14 hours light; 65% humidity), the plants were sprayed with an aqueous spray solution derived from the formulation of the technical active ingredient in acetone/water (50:50) solution containing 0.5% Tween 20 (polyoxyethelyene sorbitan monolaurate, CAS RN 9005-64-5). Compounds are applied at 250 g/ha. The test plants were then grown in a glasshouse under controlled conditions (at 24/16° C., day/night; 14 hours light; 65% humidity) and watered twice daily. After 13 days, the test is evaluated for the percentage damage caused to the plant. The biological activities are assessed on a five point scale (5=80-100%; 4=60-79%; 3=40-59%; 2=20-39%; 1=0-19%). A blank value in the table is indicative that the compound was not tested on that species.

Solanum nigrum (SOLNI) [2] = test: B5 Pre-Emergence Efficacy—Test 2; details: 250 g/ha, evaluated after 13 days
Experimental: as §1

Setaria faberi (SETFA) [3] = test: B2 Post-Emergence Efficacy—Test 2; details: post-emergence application, 250 g/ha, evaluated after 13 days (Test 2)
Experimental: (§2) B2 Post-Emergence Efficacy—Test 2 Seeds of a variety of test species are sown in standard soil in pots:—Solanum nigrum (SOLNI), Amaranthus retoflexus (AMARE), Setaria faberi (SETFA), Echinochloa crus-galli (ECHCG), Ipomoea hederacea (IPOHE), Lolium perenne (LOLPE). After 8 days cultivation (post-emergence) under controlled conditions in a glasshouse (at 24/16° C., day/night; 14 hours light; 65% humidity), the plants are sprayed with an aqueous spray solution derived from the formulation of the technical active ingredient in acetone/water (50:50) solution containing 0.5% Tween 20 (polyoxyethylene sorbitan monolaurate, CAS RN 9005-64-5). Compounds are applied at 250 g/ha. The test plants are then grown in a glasshouse under controlled conditions in a glasshouse (at 24/16° C., day/night; 14 hours light; 65% humidity) and watered twice daily. After 13 days, the test is evaluated for the percentage damage caused to the plant. The biological activities are assessed on a five point scale (5=80-100%; 4=60-79%; 3=40-59%; 2=20-39%; 1=0-19%). A blank value in the table is indicative that the compound was not tested on that species.

[4] = tested on: Echinochloa crus-galli (ECHCG); test: B2 Post-Emergence Efficacy—Test 2; details: post-emergence application, 250 g/ha, evaluated after 13 days (Test 2)
Experimental: as §2

[5] = tested on: Amaranthus retoflexus (AMARE); test: B2 Post-Emergence Efficacy—Test 2; details: post-emergence application, 250 g/ha, evaluated after 13 days (Test 2)
Experimental: as §2

Solanum nigrum (SOLNI) [6] = test: B2 Post-Emergence Efficacy—Test 2; details: post-emergence application, 250 g/ha, evaluated after 13 days (Test 2)
Experimental: as §2

Lolium perenne (LOLPE) [7] = test: B2 Post-Emergence Efficacy—Test 2; details: post-emergence application, 250 g/ha, evaluated after 13 days (Test 2)
Experimental: as §2

[8] = tested on: Ipomoea hederacea (IPOHE); test: B2 Post-Emergence Efficacy—Test 2; details: post-emergence application, 250 g/ha, evaluated after 13 days (Test 2)
Experimental: as §2

Setaria faberi (SETFA) [9] = test: B5 Pre-Emergence Efficacy—Test 2; parameters: key: 5-point scale: 5=80-100%, 4=60-79%, 3=40-59%, 2=20-39%, 1=0-19% damage; details: 250 g/ha, evaluated after 13 days
Experimental: as §1

[10] = tested on: Echinochloa crus-galli (ECHCG); test: B5 Pre-Emergence Efficacy—Test 2; parameters: key: 5-point scale: 5=80-100%, 4=60-79%, 3=40-59%, 2=20-39%, 1=0-19% damage; details: 250 g/ha, evaluated after 13 days
Experimental: as §1

Lolium perenne (LOLPE) [11] = test: B5 Pre-Emergence Efficacy—Test 2; parameters: key: 5-point scale: 5=80-100%, 4=60-79%, 3=40-59%, 2=20-39%, 1=0-19% damage; details: 250 g/ha, evaluated after 13 days
Experimental: as §1

[12] = tested on: Ipomoea hederacea (IPOHE); test: B5 Pre-Emergence Efficacy—Test 2; parameters: key: 5-point scale: 5=80-100%, 4=60-79%, 3=40-59%, 2=20-39%, 1=0-19% damage; details: 250 g/ha, evaluated after 13 days
Experimental: as §1

Compound	Control of weed species after pre-emergence application, AMARE (percentage damage, five point scale) [1]	Control of weed species after pre-emergence application, SOLNI (percentage damage, five point scale) (Solanum nigrum (SOLNI) [2])	percentage damage caused to the plant, five point scale, SETFA (Setaria faberi (SETFA) [3])	percentage damage caused to the plant, five point scale, ECHCG [4]	percentage damage caused to the plant, five point scale, AMARE [5]	percentage damage caused to the plant, five point scale, SOLNI (Solanum nigrum (SOLNI) [6])	percentage damage caused to the plant, five point scale, LOLPE (Lolium perenne (LOLPE) [7])	percentage damage caused to the plant, five point scale, IPOHE [8]	Control of weed species after pre-emergence application, SETFA (percentage damage, five point scale) (Setaria faberi (SETFA) [9])	Control of weed species after pre-emergence application, ECHCG (percentage damage, five point scale) [10]	Control of weed species after pre-emergence application, LOLPE (percentage damage, five point scale) (Lolium perenne (LOLPE) [11])	Control of weed species after pre-emergence application, IPOHE (percentage damage, five point scale) [12]
Cc1nn(C)c(=O)c(-c2c(F)ccc(Cl)c2CCc2ccc(C3CC3)cc2)c1O [Compound A-1.038]	5 (5=80-100%)	5 (5=80-100%)	5 (5=80-100%)	5 (5=80-100%)	5 (5=80-100%)	5 (5=80-100%)	5 (5=80-100%)	5 (5=80-100%)	0	5 (5=80-100%)	5 (5=80-100%)	2 (2=20-39%)
Cc1nn(C)c(=O)c(-c2c(F)ccc(Cl)c2CCc2ccc(N(C)C)cc2)c1O [Compound A-1.033]	1 (1=0-19%)	1 (1=0-19%)	5 (5=80-100%)	4 (4=60-79%)	5 (5=80-100%)	5 (5=80-100%)	5 (5=80-100%)	5 (5=80-100%)	2 (2=20-39%)	0	1 (1=0-19%)	1 (1=0-19%)
Cc1nn(C)c(=O)c(-c2c(F)ccc(Cl)c2/C=C/c2cccc(C#N)c2)c1O [Compound A-2.030]	0	0	0	0	3 (3=40-59%)	4 (4=60-79%)	1 (1=0-19%)	4 (4=60-79%)	0	0	0	0
Cc1cc(CCc2c(Cl)ccc(F)c2-c2c(O)c(C)nn(C)c2=O)ccc1N [Compound A-1.031]	3 (3=40-59%)	2 (2=20-39%)	4 (4=60-79%)	4 (4=60-79%)	5 (5=80-100%)	5 (5=80-100%)	4 (4=60-79%)	4 (4=60-79%)	1 (1=0-19%)	2 (2=20-39%)	1 (1=0-19%)	1 (1=0-19%)
Cc1nn(C)c(=O)c(-c2c(F)ccc(Cl)c2CCc2ccc(C3CC3)cc2)c1OC(=O)C(C)C [Compound A-3.038]	5 (5=80-100%)	5 (5=80-100%)	5 (5=80-100%)	2 (2=20-39%)	5 (5=80-100%)	5 (5=80-100%)	5 (5=80-100%)	5 (5=80-100%)	1 (1=0-19%)	2 (2=20-39%)	5 (5=80-100%)	5 (5=80-100%)
Cc1nn(C)c(=O)c(-c2c(F)ccc(Cl)c2/C=C/c2ccc(OC(C)(C)C)cc2)c1OC(=O)C(C)C [Compound A-4.035]	0	0	0	0	1 (1=0-19%)	3 (3=40-59%)	0	3 (3=40-59%)	0	1 (1=0-19%)	1 (1=0-19%)	1 (1=0-19%)
Cc1nn(C)c(=O)c(-c2c(F)ccc(Cl)c2CCc2ccc(O)cc2)c1O [Compound A-1.037]	1 (1=0-19%)	2 (2=20-39%)	5 (5=80-100%)	3 (3=40-59%)	1 (1=0-19%)	5 (5=80-100%)	1 (1=0-19%)	5 (5=80-100%)	0	2 (2=20-39%)	0	0
Cc1nn(C)c(=O)c(-c2c(F)ccc(Cl)c2/C=C/c2cccc(C#N)c2)c1OC(=O)C(C)C [Compound A-4.030]	3 (3=40-59%)	4 (4=60-79%)	0	1 (1=0-19%)	2 (2=20-39%)	3 (3=40-59%)	1 (1=0-19%)	3 (3=40-59%)	1 (1=0-19%)	1 (1=0-19%)	2 (2=20-39%)	1 (1=0-19%)
